Measurements reported in patent publication US11753635B2, “Methods and systems and related compositions for mixtures separation with a solid matrix” (CALIFORNIA INSTITUTE OF TECHNOLOGY, priority 2017, dated 2023).

Assays:
[1] = cited from earlier work
[2] = tested on: LAMP reaction on lambda phage DNA; experiment: LAMP with contaminants (Example 4); assay type: biochemical; conditions: 10% additive (1 uL in 10 uL reaction)
Description: LAMP reactions were carried out using standard conditions provided by NEB with slight modifications. LAMP solutions were provided by NEB unless otherwise noted. The final solution contained 1× Isothermal Amplification Buffer I, 1.4 mM dNTPs, 7 mM MgSO4 (5 mM+2 mM in buffer), WarmStart Bst 2.0 (320 U/mL), 1 mg/mL BSA (Ambion) Lambda phage LAMP primers (standard desalted, Integrated DNA Technologies) at concentrations 0.2 uM F3/B3, 1.6 uM FIP/BIP, 0.4 uM LoopF/B as previously developed by Goto in 2009 were used. Reactions were made to a total of 10 uL comprised of 5 uL concentrated reaction mix and 5 uL of purified nucleic acids from the various extraction conditions (NF—H2O for negative control). For positive controls, 5 uL purified lambda phage DNA ([…]) was added to each reaction and for 5 uL template from nucleic acid extractions or each sample was tested in triplicate (n=3) and solutions were made to either 9 uL or 10 uL. The LAMP reaction was carried out by heating to 68° C. and all of the wells were tracked in real-time (image every 35 s) on the BioRad CFX-96 system. Samples were deemed negative if they […] over 30 min. Cycle times were determined automatically using the BioRad analysis software and converted to time-to-positive in minutes. […]

| SMILES | Water solubility at 25° C. [1] | other results |
| --- | --- | --- |
| CCCCCO [1 pentanol] | 2.2 g/100 mL | – |
| CCCCCCCCCCCCCO [1 tridecanol] | – | Water solubility at 25° C. (in words) ([1]; explained as a solubility of 1 g per 10 L of solvent): practically insoluble (a |
| CCCCCCCCO [1-octanol] | 0.03 g/100 mL | Delay in LAMP (time-to-positive) ([2]; versus 10 uL positive control): 1.4 min |
| CCCCC(O)CCCC [5-nonanol] | 0.046 g/100 mL | – |
| CCCCCCCCCCCCCCCCCCCCO [Arachidyl Alcohol (20 ol), Arachidyl Alcohol] | 0.151 ug/100 mL | – |
| CCO [ethanol, reference compound] | – | Inhibition of the LAMP reaction ([2]; no amplification for at least 30 min): completely inhibits the LAMP reaction |
